Earlier results, collected in publication PMC7032176 (Asian Journal of Pharmaceutical Sciences, 2018).

Assays:
[1] = at 25 °C

water solubility [1]: about 5 ng/ml
oral bioavailability: up to 6%
SMILES: CC(C)(Sc1cc(C(C)(C)C)c(O)c(C(C)(C)C)c1)Sc1cc(C(C)(C)C)c(O)c(C(C)(C)C)c1 [Probucol]
